*1 amine or outer side, *2 acyl side, *3 side chain or, on linkers, in order; H or OH if unused. Where a SMILES comes first, the peptide text is derived from it. Bridges are numbered along the chain shown (N, C = ends). [ ]: non-standard residue; d: D form. The star is where a group is joined. Benzene(1,3-(CH2SCH2CO)2) = O=C(CSCc1cccc(CSCC(=O)[*:2])c1)[*:1]; FITC = O=C1OC2(c3ccc(O)cc3Oc3cc(O)ccc32)c2ccc(NC(=S)*)cc21; Dap = NC[C@H](N)C(=O)O; βAla = NCCC(=O)O
Columns and labels:
[1] = system: HEK293 cells; experiment: 5-day growth of HEK293 control cells; format: cell-based; conditions: 5 days, CellTiter Glo, up to 16 µM
Description: (§1) For growth inhibition by Axin peptides, DLD-1 cells were cultured and maintained as mentioned before. Right before the assay, cells were resuspended in fresh RPMI media supplemented with 10% FBS, 100 IU/mL penicillin, and 100 µg/mL streptomycin, and plated onto 96-well white flat-bottom plates at 1000 cells per well (90 µL media/well). After overnight incubation, peptide samples were serially diluted as 10× stock in PBS buffer (10% DMSO), and were added to the plated cells at 10 µL stock solution/well in triplicate to make final treatment concentrations of 0, 0.0625, 0.125, 0.25, 0.5, 1, 2, 4, 8, 16 µM. […] The samples on the plates were incubated at 37 °C, 5% CO2 for 5 days, and the cell viability was evaluated by CellTiter Glo (Promega). The luminescence signals were recorded by the H1 synergy plate reader (Biotek) using the Gen5 software, and were normalized against the control groups (100%) for which cells were only treated with the vehicle (PBS/1% DMSO). Control HEK293 cells were cultured in DMEM media supplemented with 10% FBS, 1% penicillin/streptomycin at 37 °C, 5% CO2, then incubated with peptide samples and measured for viability in the same manner as mentioned above. […] After 24 h of incubation, the cell viabilities were measured and normalized against the vehicle control groups the same as mentioned above.

[2] = system: β-catenin mediated transcription; experiment: TOPFlash luciferase reporter assay; format: cell-based; conditions: DLD-1 cells, 15 μM peptide, 24 h
Description: For evaluation of Axin peptide analogues, DLD-1 cells were cultured in 96-well flat bottom plates up to 70–80% confluency and were transfected with 200 ng M50 TOPFlash plasmid (a gift from Professor Raymond Habas, Temple Biology) and 50 ng pRL-TK plasmid (Promega). 12 h after transfection, cells were treated with DMSO vehicle or 15 μM of Axin peptide analogues for another 24 h. Luciferase activity was measured using the Dual-Glo luciferase assay kit (Promega) on a Biotek Synergy H1 plate reader using the Gen5 software. Data were processed as firefly: Renilla luciferase ratio for each control or treatment group, and were further normalized against the vehicle control group (100%) as the Relative Activities.

[3] = system: DLD-1 cells; experiment: 5-day growth inhibition of DLD-1 cancer cells; format: cell-based; conditions: 5 days, CellTiter Glo, 1000 cells per well, n = 3; read-out: EC50, inhibition of DLD-1 cell growth
Description: For growth inhibition by Axin peptides, DLD-1 cells were cultured and maintained as mentioned before. Right before the assay, cells were resuspended in fresh RPMI media supplemented with 10% FBS, 100 IU/mL penicillin, and 100 µg/mL streptomycin, and plated onto 96-well white flat-bottom plates at 1000 cells per well (90 µL media/well). After overnight incubation, peptide samples were serially diluted as 10× stock in PBS buffer (10% DMSO), and were added to the plated cells at 10 µL stock solution/well in triplicate to make final treatment concentrations of 0, 0.0625, 0.125, 0.25, 0.5, 1, 2, 4, 8, 16 µM. The wells on the edges of plates were filled with PBS buffer to avoid unwanted evaporation of samples. The samples on the plates were incubated at 37 °C, 5% CO2 for 5 days, and the cell viability was evaluated by CellTiter Glo (Promega). The luminescence signals were recorded by the H1 synergy plate reader (Biotek) using the Gen5 software, and were normalized against the control groups (100%) for which cells were only treated with the vehicle (PBS/1% DMSO). Control HEK293 cells were cultured in DMEM media supplemented with 10% FBS, 1% penicillin/streptomycin at 37 °C, 5% CO2, then incubated with peptide samples and measured for viability in the same manner as mentioned above. For Axin peptide analogues’ time-dependent cytotoxicity, peptide analogues were mixed with cells (1000 cells per well) at a final concentration of 0, 5, 10, and 15 µM. The cell viabilities were meaured via CellTiter Glo after incubation of 1 day, 2 days, and 4 days, respectively. […] After 24 h of incubation, the cell viabilities were measured and normalized against the vehicle control groups the same as mentioned above.

[4] = system: DLD-1 cells; experiment: Cell viability assay for imaging studies, Axin analogues; format: cell-based; conditions: 10 µM, 12 h incubation, CellTiter-Glo
Description: For Jurkat cells, after imaging studies with SAHBA analogues (5 µM, 4 h of incubation), viabilities were measured by mixing with the CellTiter-Glo reagent and the chemiluminescence signals were recorded and processed the same as metioned above. Similarly, confocal imaging of DLD-1 cells for the penetration pathway studies were followed by viability measurements. Cells treated with vehicle groups were also analysed and counted as the 100% control.

[5] = system: DLD-1 cells; experiment: Time-dependent cytotoxicity/growth inhibition of Axin peptide analogues; format: cell-based; conditions: 0, 5, 10, 15 µM; after 48 h of incubation; CellTiter Glo
Description: as §1

[6] = system: HeLa cells; experiment: Cell penetration of STAD peptides, confocal imaging; format: cell-based; conditions: 5 µM peptide, 2 h, confocal microscopy, 78 normalized as 1, mean ± SEM
Description: Hoechst 33342 dye and FITC-labelled peptides were excited with 405 and 488 nm lasers (Coherent OBIS), respectively. Images were analysed with NIH ImageJ software. Using the “analyse particles” function, we measured the area and intensity of individual cells (Supplementary Fig. 34a)[87]. […] However, from the distribution of data we found the best fit curve to be lognormal. Outliers were then removed using a Grubbs test (Supplementary Fig. 35b)[88]. We determined the optimal bin size for the histogram using the Freedman–Draconis rule[89]. The mean fluorescence intensity from each treatment group was calculated from n ≥ 100 cells. Error bars represented SE. P values were calculated by two sided Welch’s t test for comparison with internalization of RCM-stapled control peptides.
For FITC-labelled SAHBA analogues, 5 μM of each was incubated with Jurkat cells for 4 h[13]. The rest of the imaging procedures were done the same as mentioned above. Likewise, 5 µM of STAD peptides were incubated with HeLa cells for 2 h[71], followed by similar imaging studies; and 2 µM of p53 peptide analouges were mixed with HCT116 wt cells for 4 h before the imaging analysis of their cellular uptake. Cell samples treated with STAD or p53 series of peptide analogues were also simulatenously stained by propidium iodide (PI) to ensure the cell viability and membrane integrity.

[7] = circular dichroism; conditions: water; pH ns; 25 °C; 70 uM
[8] = system: p53 wild-type HCT-116 cells; format: cell-based; conditions: human
[9] = Circular dichroism, % alpha helicity; format: physicochemical; conditions: CD, 70 µM peptide, 25 °C, from MRE at 222 nm, three scans averaged; Axin and p53 peptides in water, HIV-targeting peptides in 25% acetonitrile/water
Description: The final concentration of the peptide samples was 70 µM. Circular dichroism (CD) measurements were performed on a Jasco model J-815 spectropolarimeter with a 1 mm Jasco quartz cell over the wavelength range of 180–250 nm. The scans were carried out at 0.2 nm resolution with 4 s average time at 25 °C. Data from three scans were averaged, base line corrected, and normalized to the mean residue ellipticity (MRE) following the equation: [θ]λ = [θ]obs/(10 × l × C × n). [θ]λ is MRE in deg × cm^2 × dmol^−1; [θ]obs is the measured ellipticity; C is the concentration of peptides in M; l is the optical pathlength in cm; and n is the number of residues in peptides. The % alpha helicity was calculated from the MRE values at 222 nm, using the equation % helicity = ([θ]222−[θ]0)/([θ]max−[θ]0) based on the previously reported method. [θ]222 is the MRE value at 222 nm; [θ]max is the maximum theoretical MRE value for a helix of n residues; and [θ]0 is the MRE value of the peptide in random coil conformation that usually equals to (2220-53T)[86].

SMILES	effect on growth of HEK293 control cells [1]	inhibition of β-catenin mediated transcription (TOPFlash) [2]	EC50 [3]	effect on viability of DLD-1 cells [4]	effects on DLD-1 cells over a time course of 24–96 h [5]	mean intensity versus RCM stapled STAD 78 [6]	helicity [7]	EC50 [8]	Helicity (%) [9]
CC[C@H](C)[C@@H]1NC(=O)[C@@H](NC(=O)[C@H](CCC(N)=O)NC(=O)[C@@H]2CCCN2C(=O)[C@H](Cc2c[nH]c3ccccc23)NC(=O)[C@H](CCCNC(=N)N)NC(=O)COCCOCCNC(=S)Nc2ccc3c(c2)C(=O)OC32c3ccc(O)cc3Oc3cc(O)ccc32)CNC(=O)CSCc2cccc(c2)CSCC(=O)NC[C@@H](C(=O)N[C@@H](Cc2c[nH]cn2)C(=O)N[C@H](C(=O)N[C@@H](CCCNC(=N)N)C(=O)N[C@@H](CCCNC(=N)N)C(=O)N[C@H](C(=O)N[C@@H](Cc2c[nH]c3ccccc23)C(=O)N[C@@H](CCCNC(=N)N)C(N)=O)C(C)C)C(C)C)NC(=O)[C@H](CC(=O)O)NC(=O)[C@H](CC(C)C)NC1=O [compound 65]	little effects	strong inhibition	2.3 ± 0.4 µM	did not affect the viability	significant effects	–	–	–	–
CC[C@H](C)[C@@H]1NC(=O)[C@@H](NC(=O)[C@H](CCC(N)=O)NC(=O)[C@@H]2CCCN2C(=O)[C@H](Cc2c[nH]c3ccccc23)NC(=O)[C@H](CCCNC(=N)N)NC(=O)COCCOCCNC(=S)Nc2ccc3c(c2)C(=O)OC32c3ccc(O)cc3Oc3cc(O)ccc32)CNC(=O)CSCc2cccc(c2)CSCC(=O)NC[C@H](C(=O)N[C@@H](Cc2c[nH]cn2)C(=O)N[C@H](C(=O)N[C@@H](CCCNC(=N)N)C(=O)N[C@@H](CCCNC(=N)N)C(=O)N[C@H](C(=O)N[C@@H](Cc2c[nH]c3ccccc23)C(=O)N[C@@H](CCCNC(=N)N)C(N)=O)C(C)C)C(C)C)NC(=O)[C@H](CC(=O)O)NC(=O)[C@H](CC(C)C)NC1=O [compound 67]	little effects	strong inhibition	9.8 ± 2 µM	did not affect the viability	significant effects	–	–	–	–
CC[C@H](C)[C@@H]1NC(=O)[C@@H](NC(=O)[C@H](CC(=O)O)NC(=O)[C@H](C)NC(=O)[C@H](CC(C)C)NC(=O)[C@H](CCC(N)=O)NC(=O)[C@H](CCCCN)NC(=O)[C@H](C)NC(=O)[C@H](Cc2ccc(O)cc2)NC(=O)[C@H](CCCCN)NC(=O)[C@H](CCCCN)NC(=O)CCNC(=S)Nc2ccc3c(c2)C(=O)OC32c3ccc(O)cc3Oc3cc(O)ccc32)CNC(=O)CSCc2cccc(c2)CSCC(=O)NC[C@@H](C(=O)N[C@@H](C)C(=O)N[C@H](C(=O)N[C@@H](CCC(=O)O)C(N)=O)[C@@H](C)O)NC(=O)[C@H](CCCCN)NC(=O)[C@H]([C@@H](C)CC)NC1=O [compound 75] ({FITC-βAla}-KKYAKQLAD[Dap]IIK[Dap]ATE-NH2; linker 10-14 via Benzene(1,3-(CH2SCH2CO)2))	–	–	–	–	–	2.92 ± 0.08 fold	–	–	–
CC(=O)N[C@@H](CCC(N)=O)C(=O)N[C@@H](CO)C(=O)N[C@@H](CCC(N)=O)C(=O)N[C@@H](CCC(N)=O)C(=O)N[C@H](C(=O)N[C@@H](Cc1ccccc1)C(=O)N[C@H]1CNC(=O)CSCc2ccc(cc2)CSCC(=O)NC[C@@H](C(=O)N[C@@H](CCC(N)=O)C(=O)N[C@@H](CC(N)=O)C(N)=O)NC(=O)[C@H](CC(C)C)NC(=O)[C@H](CC(C)C)NC(=O)[C@H](CCCNC(=N)N)NC(=O)[C@H](Cc2c[nH]c3ccccc23)NC(=O)[C@H](CC(C)C)NC(=O)[C@H](CC(N)=O)NC1=O)[C@@H](C)O [compound 82]	–	–	–	–	–	–	61%	0.66 ± 0.19 µM	–
CC(=O)N[C@@H](CCC(N)=O)C(=O)N[C@@H](CO)C(=O)N[C@@H](CCC(N)=O)C(=O)N[C@@H](CCC(N)=O)C(=O)N[C@H](C(=O)N[C@@H](Cc1ccccc1)C(=O)N[C@H]1CNC(=O)CSCc2ccc(cc2)CSCC(=O)NC[C@H](C(=O)N[C@@H](CCC(N)=O)C(=O)N[C@@H](CC(N)=O)C(N)=O)NC(=O)[C@H](CC(C)C)NC(=O)[C@H](CC(C)C)NC(=O)[C@H](CCCNC(=N)N)NC(=O)[C@H](Cc2c[nH]c3ccccc23)NC(=O)[C@H](CC(C)C)NC(=O)[C@H](CC(N)=O)NC1=O)[C@@H](C)O [compound 87]	–	–	–	–	–	–	64%	0.71 ± 0.18 µM	64%
